Measured values from ChEMBL document CHEMBL1201862, “PubChem BioAssay data set” (2004).
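Five compound concentrations were applied to cells in 96-well plates for 48 hours; endpoints were derived by simple linear interpolation of the resulting dose-response curve. The concentration for 50% growth inhibition is given as GI50.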 Calls of active or inactive are those of the source. No stated cut-off is given here; in the data, active = GI50 up to about 1.1 µM and inactive = higher.

Key:
Experiment in all cases: growth of human tumour cells (NCI), 48 h
SF-295 = test system: SF-295
NCI-H226 = test system: NCI-H226
SNB-78 = test system: SNB-78
DMS-273 = test system: DMS-273
HT-29 = test system: HT-29
A498 = test system: A498
COLO 205 = test system: COLO 205
IGROV-1 = test system: IGROV-1
SF-268 = test system: SF-268
SW-620 = test system: SW-620
SNB-19 = test system: SNB-19
SK-MEL-2 = test system: SK-MEL-2
M14 = test system: M14
HCT-15 = test system: HCT-15
ACHN = test system: ACHN
Malme-3M = test system: Malme-3M
UO-31 = test system: UO-31
NCI-H460 = test system: NCI-H460
RXF 393 = test system: RXF 393
RXF 631 = test system: RXF 631
OVCAR-5 = test system: OVCAR-5
SK-MEL-28 = test system: SK-MEL-28
EKVX = test system: EKVX
SK-OV-3 = test system: SK-OV-3
OVCAR-4 = test system: OVCAR-4
LXFL 529 = test system: LXFL 529
SNB-75 = test system: SNB-75
NCI-H23 = test system: NCI-H23
SK-MEL-5 = test system: SK-MEL-5
MOLT-4 = test system: MOLT-4
A549 = test system: A549
DLD-1 = test system: DLD-1
CCRF-CEM = test system: CCRF-CEM
LOX IMVI = test system: LOX IMVI
RPMI-8226 = test system: RPMI-8226
OVCAR-8 = test system: OVCAR-8
SN12C = test system: SN12C
HOP-18 = test system: HOP-18
U-251 = test system: U-251
UACC-257 = test system: UACC-257
XF498 = test system: XF498
HCC 2998 = test system: HCC 2998
CAKI-1 = test system: CAKI-1
K562 = test system: K562
M19-MEL = test system: M19-MEL
KM12 = test system: KM12
TK-10 = test system: TK-10
786-0 = test system: 786-0
HL-60 = test system: HL-60
DMS-114 = test system: DMS-114
KM-20L2 = test system: KM-20L2
OVCAR-3 = test system: OVCAR-3
UACC-62 = test system: UACC-62

For COc1cc2c(cc1OC)C(CC1=C(c3ccccc3)CN3CCc4cc(OC)c(OC)cc4C3C1)NCC2 (stereo not drawn), the GI50 (SF-295) was 16.8 µM (inactive), the GI50 (NCI-H226) was 18.9 µM (inactive) and the GI50 (SNB-78) was 15.6 µM (inactive). For the same compound, the GI50 (DMS-273) was 15.7 µM (inactive), the GI50 (HT-29) was 10.4 µM (inactive) and the GI50 (A498) was 16.7 µM (inactive). For the same compound, the GI50 (COLO 205) was 15.2 µM (inactive), the GI50 (IGROV-1) was 16.6 µM (inactive) and the GI50 (SF-268) was 15 µM (inactive). For the same compound, the GI50 (SW-620) was 17.7 µM (inactive), the GI50 (SNB-19) was 19.6 µM (inactive) and the GI50 (SK-MEL-2) was 20.5 µM (inactive). The GI50 (M14) was 21.3 µM (inactive), the GI50 (HCT-15) was 17.7 µM and the GI50 (ACHN) was 24.3 µM (inactive). The GI50 (Malme-3M) was 19.5 µM (inactive), the GI50 (UO-31) was 11.1 µM (inactive) and the GI50 (NCI-H460) was 18.8 µM (inactive). For the same compound, the GI50 (RXF 393) was 2.66 µM (inactive), the GI50 (RXF 631) was 14.8 µM (inactive) and the GI50 (OVCAR-5) was 18.5 µM (inactive). For the same compound, the GI50 (SK-MEL-28) was 14.5 µM (inactive), the GI50 (EKVX) was 21.8 µM (inactive) and the GI50 (SK-OV-3) was 28 µM (inactive). The GI50 (OVCAR-4) was 14 µM (inactive), the GI50 (LXFL 529) was 16.6 µM (inactive) and the GI50 (SNB-75) was 12.5 µM (inactive). The GI50 (NCI-H23) was 23.1 µM (inactive), the GI50 (SK-MEL-5) was 12.4 µM (inactive) and the GI50 (MOLT-4) was 9.91 µM (inactive). The GI50 (A549) was 17 µM (inactive), the GI50 (DLD-1) was 19.1 µM (inactive) and the GI50 (CCRF-CEM) was 14.6 µM (inactive). For the same compound, the GI50 (LOX IMVI) was 15.8 µM (inactive), the GI50 (RPMI-8226) was 9.84 µM (inactive) and the GI50 (OVCAR-8) was 19.3 µM (inactive). The GI50 (SN12C) was 17.9 µM (inactive), the GI50 (HOP-18) was 14.6 µM (inactive) and the GI50 (U-251) was 15.2 µM (inactive). The GI50 (UACC-257) was 16.2 µM (inactive), the GI50 (XF498) was 11.7 µM (inactive) and the GI50 (HCC 2998) was 10.6 µM (inactive). The GI50 (CAKI-1) was 25.7 µM (inactive), the GI50 (K562) was 12.2 µM (inactive) and the GI50 (M19-MEL) was 17 µM (inactive). For the same compound, the GI50 (KM12) was 17.2 µM (inactive), the GI50 (TK-10) was 16.6 µM (inactive) and the GI50 (786-0) was 15.7 µM (inactive). The GI50 (HL-60) was 12.2 µM (inactive), the GI50 (DMS-114) was 14.3 µM (inactive) and the GI50 (KM-20L2) was 13.4 µM (inactive). The GI50 (OVCAR-3) was 17.3 µM (inactive) and the GI50 (UACC-62) was 20.4 µM (inactive).
